{
  "source": "paper PMC6848146",
  "about": "“Binding and structural analyses of potent inhibitors of the human Ca^2+/calmodulin dependent protein kinase kinase 2 (CAMKK2) identified from a collection of commercially-available kinase inhibitors” (Scientific Reports, 2019)",
  "key": {"[1]": {"biological_target": "T1, CAMKK2-KD (kinase domain of CAMKK2) (Homo sapiens, UniProt Q96RR4)", "T1 construct": "the protein kinase domain (amino acids 161–449); hexahistidine (6xHis), TEV-cleavable; made in house", "T1 sequence (Q96RR4 161-449)": "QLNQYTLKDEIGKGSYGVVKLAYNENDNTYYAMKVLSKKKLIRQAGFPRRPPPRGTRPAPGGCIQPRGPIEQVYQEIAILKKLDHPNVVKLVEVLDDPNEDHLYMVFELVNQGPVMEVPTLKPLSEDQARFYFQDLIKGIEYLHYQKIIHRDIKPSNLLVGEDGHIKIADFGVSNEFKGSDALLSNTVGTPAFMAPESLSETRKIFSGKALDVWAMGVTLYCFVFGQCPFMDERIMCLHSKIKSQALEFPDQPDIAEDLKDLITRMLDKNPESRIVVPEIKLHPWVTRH", "assay": "DSF thermal-shift screen, 384-well format", "assay_type": "binding", "settings": "10 µM compound, 1 µM kinase, 0.1% DMSO, single measurement", "procedure": "(§1) We employed a thermal-shift assay (Differential Scanning Fluorimetry, DSF)[19] to identify compounds that can bind to the kinase domain of CAMKK2 (CAMKK2-KD). Protein thermal denaturation curves (Fig. 1A,B) were used to calculate the denaturation midpoint temperature (Tm) for the kinase domain of CAMKK2 in the presence of ligands or vehicle only (DMSO). […] DSF screens were performed on purified CAMKK2-KD using a library of commercially available, chemically diverse, ATP-competitive, kinase inhibitors.\nDSF experiments in 384-well format followed a protocol previously established at the SGC-UNICAMP and described elsewhere.\nThe compounds, previously solubilized in DMSO, were used at 10 µM final concentration and 0.1% DMSO. Plates were sealed using optically clear films and transferred to a QuantStudio 6 qPCR instrument (Applied Biosystems). […] Protein in 0.1% DMSO was used as a reference.\n(§2) For both formats, experiments were performed in singlets."}, "[2]": {"biological_target": "T1, CAMKK2-KD (kinase domain of CAMKK2)", "assay": "DSF thermal-shift screen, 96-well format", "assay_type": "binding", "settings": "96-well format, 12 µM compound, 2 µM kinase, 2.5% DMSO, single measurement; for ΔTm at 12 µM: read-out: ΔTm", "procedure": "as §1\nSYPRO Orange dye (Invitrogen) was used in 5X as final concentration.\nPlates were sealed using optically clear films and transferred to an Mx3005p RT-PCR machine (Agilent).\nas §2"}, "[3]": {"biological_target": "T2, CAMKK2-FL (Homo sapiens, UniProt Q96RR4)", "T2 construct": "an enzymatic assay using the full-length protein (CAMKK2-FL); purchased Eurofins Discovery (MO, USA), assay service", "assay": "Radiometric enzymatic assay (Eurofins Discovery), Ca2+/Calmodulin present", "assay_type": "biochemical", "settings": "90 µM ATP; single measurement"}, "[4]": {"biological_target": "T3, CAMKK1-FL (Homo sapiens, UniProt Q8N5S9)", "T3 construct": "purchased Eurofins Discovery (MO, USA), assay service", "assay": "Radiometric enzymatic assay (Eurofins Discovery), Ca2+/Calmodulin present", "assay_type": "biochemical", "settings": "200 µM ATP; single measurement", "procedure": "All compounds employed in this study were initially developed to target other human protein kinases, and some are known to be quite promiscuous[18],[21].\nReaction conditions for assays using CAMKK1-FL were: 8 mM MOPS pH 7.0, 0.2 mM EDTA, 0.33 mg/mL MBP (myelin basic protein), 0.5 mM calcium chloride, 0.016 mg/ml calmodulin, 10 mM magnesium acetate and [gamma-^33P-ATP] (200 µM). […] The reactions were initiated by the addition of a Mg^2+-ATP mixture. After incubation for 40 minutes at room temperature, the reaction was stopped by the addition of phosphoric acid to a final concentration of 0.5%. […] Following subtraction of the average inhibitor control well counts, results were expressed as a percentage of the mean kinase activity in the positive control sample."}},
  "note": "Marks after values point to notes of the source that are not given here.",
  "data": [
    {"molecule": "CCOC(=O)c1cnc2ccc(-c3cncc(NS(=O)(=O)c4ccccc4)c3)cn12", "note": "[HS-173]", "values": [
      {"measurement": "ΔTm", "setting": "[1]", "value": 4.2, "unit": "°C"}
    ]},
    {"molecule": "CCS(=O)(=O)Nc1ccc2c(c1)/C(=C(/Nc1ccc(CN3CCCCC3)cc1)c1ccccc1)C(=O)N2", "note": "[Hesperadin]", "values": [
      {"measurement": "ΔTm at 10 µM", "setting": "[1]", "value": 7.3, "unit": "°C"}
    ]},
    {"molecule": "O=C(c1ccc(Nc2nccc(-c3cc4ccccc4s3)n2)cc1)N1CCC(N2CCCC2)CC1", "note": "[IKK 16]", "values": [
      {"measurement": "ΔTm", "setting": "[2]", "value": 6.8, "unit": "°C"}
    ]},
    {"molecule": "O=C1Nc2ccccc2/C1=C1/Nc2ccccc2/C1=N\\O", "note": "[Indirubin-3monoxime]", "values": [
      {"measurement": "ΔTm", "setting": "[2]", "value": 5.4, "unit": "°C"}
    ]},
    {"molecule": "O=C1c2ccccc2-c2n[nH]c3cccc1c23", "note": "[JNK Inhibitor II]", "values": [
      {"measurement": "ΔTm", "setting": "[2]", "value": 6.8, "unit": "°C"}
    ]},
    {"molecule": "COC(=O)[C@@]1(O)C[C@H]2O[C@]1(C)n1c3ccccc3c3c4c(c5c6ccccc6n2c5c31)C(=O)NC4", "note": "[K252a]", "values": [
      {"measurement": "ΔTm", "setting": "[2]", "value": "18.3^e °C"},
      {"measurement": "IC50", "setting": "[3]", "value": 50, "unit": "nM"},
      {"measurement": "IC50", "setting": "[4]", "value": 51, "unit": "nM"}
    ]},
    {"molecule": "Cc1cc(Nc2ncc(Cl)c(Nc3ccccc3S(=O)(=O)C(C)C)n2)c(OC(C)C)cc1C1CCNCC1", "note": "[LDK378]", "values": [
      {"measurement": "ΔTm at 10 µM", "setting": "[1]", "value": 8, "unit": "°C"}
    ]},
    {"molecule": "Cc1cc(Nc2cc(CN3CCOCC3)c3nc(C)c(Cc4ccc(Cl)cc4F)n3n2)n[nH]1", "note": "[LY2784544]", "values": [
      {"measurement": "ΔTm at 10 µM", "setting": "[1]", "value": 4.3, "unit": "°C"}
    ]},
    {"molecule": "CCN1CCN(Cc2ccc(Nc3ncc(F)c(-c4cc(F)c5nc(C)n(C(C)C)c5c4)n3)nc2)CC1", "note": "[LY2835219]", "values": [
      {"measurement": "ΔTm at 10 µM", "setting": "[1]", "value": 6.2, "unit": "°C"}
    ]},
    {"molecule": "CNC(=O)c1nn(C)c2c1C(C)(C)Cc1cnc(Nc3ccc(N4CCN(C)CC4)cc3)nc1-2", "note": "[Milciclib (PHA-848125), Milciclib]", "values": [
      {"measurement": "ΔTm at 10 µM", "setting": "[1]", "value": 7, "unit": "°C"}
    ]},
    {"molecule": "CC(C)n1cnc2c(Nc3cccc(Cl)c3)nc(NCCO)nc21", "note": "[NG 52 (Compound 52)]", "values": [
      {"measurement": "ΔTm", "setting": "[2]", "value": 6.8, "unit": "°C"}
    ]},
    {"molecule": "CN(c1ncccc1CNc1nc(Nc2ccc3c(c2)CC(=O)N3)ncc1C(F)(F)F)S(C)(=O)=O", "note": "[PF-562271]", "values": [
      {"measurement": "ΔTm", "setting": "[1]", "value": 4.2, "unit": "°C"}
    ]},
    {"molecule": "CS(=O)(=O)c1cccc(CNc2nc(Nc3ccc4c(c3)CCC(=O)N4)ncc2C(F)(F)F)c1", "note": "[PF-573228]", "values": [
      {"measurement": "ΔTm", "setting": "[1]", "value": 4.5, "unit": "°C"}
    ]},
    {"molecule": "Cc1nc(Nc2[nH]nc3c2CN(C(=O)N[C@H](CN(C)C)c2ccccc2)C3(C)C)c2sccc2n1", "note": "[PF-3758309]", "values": [
      {"measurement": "ΔTm at 10 µM", "setting": "[1]", "value": 4.4, "unit": "°C"}
    ]},
    {"molecule": "Cc1[nH]c(/C=C2\\C(=O)Nc3ccc(S(=O)(=O)Cc4c(Cl)cccc4Cl)cc32)c(C)c1C(=O)N1CCC[C@@H]1CN1CCCC1", "note": "[PHA-665752]", "values": [
      {"measurement": "ΔTm at 10 µM", "setting": "[1]", "value": 4.9, "unit": "°C"}
    ]},
    {"molecule": "Cc1ccc([N+](=O)[O-])cc1S(=O)(=O)N(C)/N=C/c1cnc2ccc(Br)cn12", "note": "[PIK-75]", "values": [
      {"measurement": "ΔTm", "setting": "[1]", "value": 7.2, "unit": "°C"}
    ]},
    {"molecule": "C1=C/COCc2cc(ccc2OCCN2CCCC2)Nc2nccc(n2)-c2cccc(c2)COC/1", "note": "[Pacritinib (SB1518), Pacritinib]", "values": [
      {"measurement": "ΔTm at 10 µM", "setting": "[1]", "value": 7.8, "unit": "°C"}
    ]},
    {"molecule": "CCOc1cc2ncc(C#N)c(Nc3ccc(F)c(Cl)c3)c2cc1NC(=O)/C=C/CN(C)C", "note": "[Pelitinib]", "values": [
      {"measurement": "ΔTm at 10 µM", "setting": "[1]", "value": 4.8, "unit": "°C"}
    ]},
    {"molecule": "c1nc2nc(Nc3ccc(N4CCOCC4)cc3)nc(NC3CCCCC3)c2[nH]1", "note": "[Reversine]", "values": [
      {"measurement": "ΔTm at 12 µM", "setting": "[2]", "value": 4.6, "unit": "°C"}
    ]},
    {"molecule": "COc1cc(C(=O)NC2CCN(C)CC2)ccc1Nc1ncc2c(n1)N(C1CCCC1)CC(F)(F)C(=O)N2C", "note": "[Ro3280]", "values": [
      {"measurement": "ΔTm", "setting": "[1]", "value": 4.5, "unit": "°C"}
    ]},
    {"molecule": "COc1ccc2c(c1)/C(=C/c1cnc[nH]1)C(=O)N2", "note": "[SU9516]", "values": [
      {"measurement": "ΔTm at 12 µM", "setting": "[2]", "value": 5, "unit": "°C"}
    ]},
    {"molecule": "Cn1cc(/C=C2\\C(=O)Nc3ccc(S(N)(=O)=O)cc32)c2ccccc21", "note": "[Syk Inhibitor]", "values": [
      {"measurement": "ΔTm", "setting": "[2]", "value": 9.4, "unit": "°C"}
    ]},
    {"molecule": "CNC(=O)c1ccccc1Nc1nc(Nc2ccc(N3CCOCC3)cc2OC)ncc1Cl", "note": "[TAE226]", "values": [
      {"measurement": "ΔTm", "setting": "[1]", "value": "7.5^d °C"},
      {"measurement": "IC50", "setting": "[4]", "value": 395, "unit": "nM"}
    ]},
    {"molecule": "COc1cc(N2CCC(N3CCN(C)CC3)CC2)ccc1Nc1ncc(Cl)c(Nc2ccccc2S(=O)(=O)C(C)C)n1", "note": "[TAE684]", "values": [
      {"measurement": "ΔTm at 12 µM", "setting": "[2]", "value": 16.3, "unit": "°C"}
    ]},
    {"molecule": "CCS(=O)(=O)c1cccc(-c2cc(C(=O)NC3CCN(C)CC3)c(C)c3[nH]c4ncc(C)cc4c23)c1", "note": "[TAK-901]", "values": [
      {"measurement": "ΔTm at 10 µM", "setting": "[1]", "value": 4.7, "unit": "°C"}
    ]},
    {"molecule": "C=CC(=O)Nc1cccc(Sc2nc(Nc3ccc(N4CCN(C)CC4)cc3)ncc2Cl)c1", "note": "[WZ8040]", "values": [
      {"measurement": "ΔTm", "setting": "[1]", "value": 4.8, "unit": "°C"}
    ]},
    {"molecule": "JAK Inhibitor I", "values": [
      {"measurement": "ΔTm", "setting": "[2]", "value": 4.7, "unit": "°C"}
    ]}
  ]
}
